The test system of one data set is B cells. Put plainly: TGF-β secretion by stimulated PBMCs from mRCC patients (ELISA). To be noted: everolimus 10 ng/mL, 6 days, supernatant. In general terms: ELISA stands for enzyme-linked immunosorbent assay.
A further data set deals with MART-1 specific CTLs. In words: Priming of MART-1 specific CTLs by PME-CD40L DCs in the presence of mTOR inhibitors. The following applies: in the presence of the mTOR inhibitor, 10 ng/ml to 1 ug/ml. It counts as cell-based, human. As to the method: 300 x 10^6 peripheral blood mononuclear cells (PBMCs) were cultured in 30 mL AIM-V media (Thermo Fisher Scientific) in T150 flasks (Corning) for 2 hours to provide for the adherence of monocytes. Non-adherent cells were removed by washing the monolayers twice with cold phosphate buffered saline (PBS) (Cambrex), and the remaining monocytes were cultured in X-VIVO 15 medium (Cambrex) for 5 days, supplemented with 1000 U/mL each of granulocyte macrophage-colony stimulating factor (GM-CSF) (Bayer AG, Leukine® liquid) and IL-4 (R&D Systems). To achieve DC maturation, immature DCs were first cultured on day 5 with 10 ng/mL tumor necrosis factor alpha (TNF-α) (R&D Systems), 1000 µ/mL interferon gamma (IFN-y) (Actimmune), and 1 µg/mL prostaglandin E2 (PGE2) (Sigma). On day 6, phenotypically mature DCs were co-electroporated with RNA encoding CD40L (Argos Lot No. 101606 JSC) at a concentration of 3 ug per million DCs plus either human cytomegalovirus (CMV) pp65 or MART-1 encoding RNAs at 2 µg per million DCs (CMVpp65 RNA-Argos Lot No 071107XF, MART-1-APL RNA-Argos Lot No. 011909HC). […]
PME-CD40L DCs derived from HLA-A2-positive donors and transfected with antigen-encoding mRNAs were co-cultured with purified CD8^+ T cells. […] Induction of primary immune responses to MART-1 and memory/recall responses to CMV pp65 were measured on day 10. […]

For data set [1], the system named is healthy donor PBMC T cells. In words: Healthy donor PBMCs stimulated with autologous PME-CD40L-CMV DCs with mRCC patient plasma with or without everolimus. It counts as cell-based, human. As for the experimental part:
PBMCs and DCs were thawed and washed in PBS (Lonza) prior to counting. Post maturation electroporated monocyte-derived dendritic cells (PME-CD40L) were generated from healthy donors as described in DeBenedette MA. et al., J Immunol. 181(8):5296-5305 (2008) (incorporated herein by reference in its entirety), and were co-electroporated with RNA encoding the pp65 CMV protein and RNA encoding CD40L. Viable cell counts were performed using BD TruCount Absolute Counting Tubes and propidium iodide (BD Biosciences) by flow cytometry. PBMCs and DCs were re-suspended in X-Vivo15 (with gentamicin and phenol red) (Lonza) containing 10% normal human AB serum (Valley biomedical). […] Frozen PBMC vials from 2 HLA-mismatched healthy donors were thawed and counted. […] Purified Mouse anti-human CD3 (clone OKT3, BD Biosciences) was used to stimulate healthy donor PBMCs in culture.
HLA-mismatched healthy donor PBMCs were mixed and cultured for 7 days in the presence of 2% mRCC patient plasma and with or without 20 ng of everolimus added on day 0, and the frequency of CD28^+ memory T cells was determined. […] To expand the understating whereby everolimus can reduce the immune suppressive impact of mRCC, patient plasma PBMCs were stimulated with autologous DCs presenting the pp65 CMV antigen. Healthy donor PBMCs and autologous DCs were mixed and cultured for 6 days in the presence of 2% mRCC patient plasma and with or without 20 ng of everolimus added on day 0.
Furthermore, the impact of everolimus on the suppressive effect of mRCC patient plasma when PBMCs were stimulated with autologous DCs was examined.
To understand the ability of everolimus to restore the frequency of CD25^+CD28^+ T cells, the expression of both CD25 and CD28 on CD8 T cells stimulated in the MLR or with autologous DCs in the presence of mRCC patient plasma was measured by the geometric mean fluorescence intensity (MFI).

For data set [2] the following is noted: than rapamycin (sirolimus); cited from earlier work.
In another data set the test system is CMV pp65 specific CTLs. Put plainly: Induction of CMV pp65 specific recall CTLs by PME-CD40L DCs in the presence of mTOR inhibitors. It counts as cell-based, human. As for the experimental part: 300 x 10^6 peripheral blood mononuclear cells (PBMCs) were cultured in 30 mL AIM-V media (Thermo Fisher Scientific) in T150 flasks (Corning) for 2 hours to provide for the adherence of monocytes. Non-adherent cells were removed by washing the monolayers twice with cold phosphate buffered saline (PBS) (Cambrex), and the remaining monocytes were cultured in X-VIVO 15 medium (Cambrex) for 5 days, supplemented with 1000 U/mL each of granulocyte macrophage-colony stimulating factor (GM-CSF) (Bayer AG, Leukine® liquid) and IL-4 (R&D Systems). To achieve DC maturation, immature DCs were first cultured on day 5 with 10 ng/mL tumor necrosis factor alpha (TNF-α) (R&D Systems), 1000 µ/mL interferon gamma (IFN-y) (Actimmune), and 1 µg/mL prostaglandin E2 (PGE2) (Sigma). On day 6, phenotypically mature DCs were co-electroporated with RNA encoding CD40L (Argos Lot No. 101606 JSC) at a concentration of 3 ug per million DCs plus either human cytomegalovirus (CMV) pp65 or MART-1 encoding RNAs at 2 µg per million DCs (CMVpp65 RNA-Argos Lot No 071107XF, MART-1-APL RNA-Argos Lot No. 011909HC). Generation of MART-1 RNA and CD40L RNA is described in e.g., DeBenedette et al., J. Immunol. 181(8):5296-5305 (2008).
Electroporated DCs were cultured for an additional 4 hours in X-VIVO 15 media supplemented with 800 µ/mL GM-CSF and 500 µ/mL IL-4 at 1 x 10^6 DCs/mL in low adherence 6-well plates (Costar). After 4 hr, the DCs were harvested by washing with cold PBS and prepared as a frozen formulation at 10 x 10^6 DCs/mL in 20% DMSO and 80% FBS, representing antigen electroporated Post Maturation Electroporated (PME)-CD40L DC preparations.
PME-CD40L DCs derived from HLA-A2-positive donors and transfected with antigen-encoding mRNAs were co-cultured with purified CD8^+ T cells. All co-cultures were performed in R-10 media. CD8^+ T cells were purified using the CD8+ T Cell Negative Selection Kit II (Miltenyi Biotec) from non-adherent cells harvested from the monocyte adherence step. The CD8^+ cells were mixed with DCs at a 10:1 ratio and incubated in the presence of 0.2 µg/mL IL-2 and 10 ng/mL IL-7 (R&D Systems). DC/T cell co-cultures were re-stimulated on day 7 and supplemented with 20 units/mL IL-2 plus 10 ng/mL IL-7. Induction of primary immune responses to MART-1 and memory/recall responses to CMV pp65 were measured on day 10.
To identify antigen-specific T cell responses and the phenotype of the antigen specific cells, T cells were harvested on day 10 post-stimulation and incubated with peptide-pulsed T2 target cells at a ratio of 10:1 for 4 hour with Brefeldin A, Monensin (BD Biosciences) and CD107a PE-Cy5. […] After 4 hours of co-culture, responder T cells were stained for 10 minutes with the requisite peptide/pentamer reagent, then washed once and re-stained with CD8-Eflour605, CD45RA-FITC, and CD28-APC. Cells were then washed in PBS and stained with Aquadye (BD Biosciences) for analysis of viability. Labeled cells were then fixed and permeabilized in Fixation/Permeabilization solution (eBiosciences). Cells where then stained with IFN-γ-PECy7, TNFa-AF700 and IL-2-PerCPcy5.5 in permeabilization buffer and resuspended in FACs buffer prior to acquisition.
CD8^+ cytotoxic T lymphocyte (CTL) responses were used to measure the pp65 CMV recall response induced by PME-CD40L DCs in the presence of mTOR inhibitors everolimus and temsirolimus. PME-CD40L DCs encoding CMV pp65 were used to stimulate recall CTL responses in the presence of the mTOR inhibitors under evaluation for compatibility with the CMN-001 product. The expansion of recall CTLs specific for CMV pp65 was determined on day 3 after a second weekly stimulation with PME-CD40L DCs.

[3] abbreviates: autologous DCs 6 days, 2% mRCC patient plasma, 20 ng everolimus.
Where [4] appears, read: autologous DCs, mRCC patient plasma, everolimus, statistically significant.
Where [5] appears, read: 10 ng/ml, compared to DC/CTL co-cultures without mTOR inhibitor, day 3 after second weekly stimulation.

Method for B cells: Frozen patient PBMC were thawed, counted, and washed in PBS. The cells were resuspended in X-VIVO 15 media (with gentamicin and phenol red; Lonza) at 2x10^6 cells/mL and incubated overnight in a 5% CO2 incubator at 37° C. The cells were counted and set up in culture at 1x10^6 cells/mL in X-VIVO 15 media. […] Everolimus (LC Laboratories) was added at 10 ng/mL to unstimulated or stimulated cultures. The cultures were incubated overnight in a 5% CO2 incubator at 37° C. for six days.
The concentration of total TGF-β1 in plasma and supernatant samples was quantified using the LEGEND MAX Total TGF-β1 ELISA Kit (Biolegend). Samples were prepared by acid treatment to activate latent TGF-β1 and then diluted 1:20 or 1:100 in assay buffer. Samples were incubated on a plate pre-coated with anti-TGF-β1 antibody for 2 hours. Anti-TGF-β1 was incubated for 1 hour, and the plate was washed and incubated with Avidin-HRP for 30 minutes. The plate was developed with TMB substrate solution and Stop solution, and was read at 450 nm and 570 nm using an ELx800 plate reader.
Thus, the impact of everolimus on B cell TGF-β production was investigated. PBMCs from mRCC patients were stimulated (“stim”) or left unstimulated (“control”) with or without everolimus addition as described in Example 1 to induce TGF-β secretion. TGF-β concentrations in the supernatant were measured after 6 days by ELISA.

Take `CO[C@H]1C[C@@H]2CC[C@@H](C)[C@@](O)(O2)C(=O)C(=O)N2CCCC[C@H]2C(=O)O[C@H]([C@H](C)C[C@@H]2CC[C@@H](OCCO)[C@H](OC)C2)CC(=O)[C@H](C)/C=C(\C)[C@@H](O)[C@@H](OC)C(=O)[C@H](C)C[C@H](C)/C=C/C=C/C=C/1C` [everolimus]: the “concentration of TGF-β secreted by stimulated B cells” value in the data set on B cells was “decrease”. For the same compound, the “priming of MART-1 specific CTLs by PME-CD40L DC” value in the data set on MART-1 specific CTLs is “able to prime”. In addition, in data set [1] (setting [3]), the “expression of CD25 on CD8 T cells (MFI)” value is “statistically significant increase”, the “expression of CD28 on CD8 T cells (MFI)” value is given as “statistically significant increase” and the “frequency of proliferating CD28- CD4 T cells” value was “little impact”. Moreover, the “frequency of proliferating CD28+ CD4 T cells suppressed by mRCC patient plasma” value in data set [1] (autologous DCs 6 days, 2% mRCC patient plasma, 20 ng everolimus on day 0, not statistically significant (p<0.283)) is on record as “partially restored”. Also, the “plasma mediated suppression of proliferating CD28+ CD8 T cells” value in data set [1] (autologous DCs 6 days, 2% mRCC patient plasma, 20 ng everolimus, p< 0.0002) is “partially reversed”. The “frequency of proliferating CD28- CD8 T cells” value in data set [1] (autologous DCs 6 days, 2% mRCC patient plasma, 20 ng everolimus, p<0.92) was “minimal ability to decrease”. Moreover, the “frequency of CD25+CD28+ CD4 T cells” value in data set [1] (autologous DCs, mRCC patient plasma, everolimus, did not reach statistical significance) was “partially restored”. Further, in data set [1] (setting [4]), the “frequency of CD25+CD28+ CD8 T cells” value is recorded as “partially restore” and the “frequency of CD25+CD28- CD8 T cells” value is “partially restore”. The pharmokinetics entry in data set [2] is recorded as “more favorable”. In addition, in the data set with CMV pp65 specific CTLs (setting [5]), the “numbers of CMV pp65 specific CTLs” value was “increase” and the “percentage of CMV pp65 specific CTLs” value was “increase”. In the data set on CMV pp65 specific CTLs (1 µg/ml), the “increase in absolute numbers of CMV+ CTL” value is reported as “evident” and the “increase in percentage of CMV+ CTL” value was “evident”.

Values taken from US20230061319A1, “METHODS OF TREATING TUMORS” (CoImmune, Inc., priority 2020, published 2023).
